The target in data set [1] is T1, Pancreatic triacylglycerol lipase (Sus scrofa, UniProt P00591).
T1 sequence (P00591 whole entry): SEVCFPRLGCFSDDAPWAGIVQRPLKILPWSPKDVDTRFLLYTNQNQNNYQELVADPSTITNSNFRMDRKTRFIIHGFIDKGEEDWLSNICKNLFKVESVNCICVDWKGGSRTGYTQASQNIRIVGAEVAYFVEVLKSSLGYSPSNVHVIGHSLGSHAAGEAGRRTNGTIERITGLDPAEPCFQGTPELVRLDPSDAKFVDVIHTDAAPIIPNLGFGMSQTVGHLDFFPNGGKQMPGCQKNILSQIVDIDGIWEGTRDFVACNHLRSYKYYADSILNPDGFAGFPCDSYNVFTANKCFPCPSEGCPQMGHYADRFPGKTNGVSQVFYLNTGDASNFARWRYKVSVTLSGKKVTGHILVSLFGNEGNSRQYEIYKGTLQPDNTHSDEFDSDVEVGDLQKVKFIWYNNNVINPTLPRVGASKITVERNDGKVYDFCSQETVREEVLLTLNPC
The data set can be described thus: Inhibition of porcine pancreatic lipase using pNPB as substrate measured after 30 mins.

The target in data set [2] is T1, Pancreatic triacylglycerol lipase. The data set can be described thus: Inhibition of porcine pancreatic lipase using pNPB as substrate measured after 30 mins using plasma treated sample.
The nature of data set [3]: Cytotoxicity against mouse 3T3L1 cells assessed as reduction in cell viability after 48 hrs by sulforhodamine B assay. It is filed as cell-based. Conditions: 3T3-L1 cells. (In general: In SRB staining, fixed cells bind dye roughly in proportion to their protein.)
Data set [4] deals with 3T3-L1. The data set can be described thus: Cytotoxicity against mouse 3T3L1 cells assessed as effect on cell viability up to 50 uM by MTT assay. It is filed as cell-based.
In data set [5] the test system is 3T3-L1. The data set can be described thus: Inhibition of cell differentiation in mouse 3T3L1 cells assessed as reduction in pre-adipocyte differentiation into matured adipocytes at 2.5 to 10 uM incubated for 8 days in differentiation media by oil red O staining based method. It is filed as functional.
The subject of data set [6] is 3T3-L1. The data set can be described thus: Anti-adipogenic activity in mouse 3T3L1 preadipocytes assessed as decrease in lipid accumulation at 10 uM incubated for 8 days in differentiation media by Oil Red O staining based ELISA relative to control. It is filed as functional. The arrangement: scale not given: the % may be the effect or the level left. A general note: An ELISA detects its analyte on a solid surface through an enzyme-linked reagent.

The subject of data set [7] is 3T3-L1. The data set can be described thus: Anti-adipogenic activity in mouse 3T3L1 preadipocytes assessed as decrease in lipid accumulation at 5 uM incubated for 8 days in differentiation media by Oil Red O staining based ELISA relative to control. The format is functional. The arrangement: scale not given: the % may be the effect or the level left.
Data set [8] relates to 3T3-L1. The data set can be described thus: Anti-adipogenic activity in mouse 3T3L1 preadipocytes assessed as decrease in lipid accumulation at 2.5 uM incubated for 8 days in differentiation media by Oil Red O staining based ELISA relative to control. It is filed as functional. The arrangement: scale not given: the % may be the effect or the level left.

Consider six compounds from ChEMBL document CHEMBL4387782, “A new approach to procyanidins synthesis with potent anti-adipogenic effects” (Bioorg Med Chem Lett, 2019).

Calls of active or inactive are those of the source. The rule behind the calls is not given here. Bounds are passed on as bounds.

Usually IC50 stands for the point on the concentration scale where inhibition reaches its midpoint. In the case of `Oc1cc(O)c2c(c1)O[C@H](c1ccc(O)c(O)c1)[C@@H](O)C2` [CIANIDANOL], the IC50 in data set [1] was greater than 500 µM; in data set [2], 340 µM.
With `Oc1ccc([C@H]2Oc3c(Cc4c(O)c(Cc5c(O)cc(O)c6c5O[C@H](c5ccc(O)c(O)c5)[C@@H](O)C6)c5c(c4O)C[C@H](O)[C@@H](c4ccc(O)c(O)c4)O5)c(O)cc(O)c3C[C@@H]2O)cc1O`, the IC50 in data set [1] amounted to 45.9 µM. The MNTC at 48 h in data set [3] amounted to 50 µM. For the same compound, the Activity entry with 3T3-L1 [4] is reported as “Non-Toxic”. The inhibition entry with 3T3-L1 [5] is “Active”.
For `Oc1ccc([C@H]2Oc3cc(O)c(Cc4c(O)cc(O)c5c4O[C@H](c4ccc(O)c(O)c4)[C@@H](O)C5)c(O)c3C[C@@H]2O)cc1O`, the IC50 in data set [1] was found to be 102 µM. In addition, the MNTC at 48 h in data set [3] came out at 50 µM. Also, the Activity result in the data set with 3T3-L1 [4] was “Non-Toxic”.
For the compound `Oc1ccc([C@H]2Oc3cc(O)c(Cc4c(O)cc5c(c4O)C[C@H](O)[C@@H](c4ccc(O)c(O)c4)O5)c(O)c3C[C@@H]2O)cc1O`, in data set [1], the IC50 was 78.7 µM. Further, the MNTC at 48 h in data set [3] was found to be 50 µM. Also, the Activity result in the data set on 3T3-L1 [4] is reported as “Non-Toxic”. For the same compound, the inhibition entry in the data set on 3T3-L1 [5] is “Active”.
`Oc1ccc([C@H]2Oc3c(Cc4c(O)cc(O)c5c4O[C@H](c4ccc(O)c(O)c4)[C@@H](O)C5)c(O)cc(O)c3C[C@@H]2O)cc1O`: 110 µM corresponded to half-maximal inhibition in data set [1] (IC50). In addition, the MNTC at 48 h in data set [3] is 50 µM. In addition, the Activity result in the data set with 3T3-L1 [4] is “Non-Toxic”.
In turn, `Oc1ccc([C@H]2Oc3c(Cc4c(O)c(Cc5c(O)c(Cc6c(O)cc(O)c7c6O[C@H](c6ccc(O)c(O)c6)[C@@H](O)C7)c(O)c6c5O[C@H](c5ccc(O)c(O)c5)[C@@H](O)C6)c5c(c4O)C[C@H](O)[C@@H](c4ccc(O)c(O)c4)O5)c(O)cc(O)c3C[C@@H]2O)cc1O` gave an IC50 in data set [1] of 18.8 µM. For the same compound, in data set [3], the MNTC at 48 h was found to be 50 µM. In addition, the Activity result with 3T3-L1 [4] is listed as “Non-Toxic”; in the data set on 3T3-L1 [6], 67.2%; with 3T3-L1 [7] it was 52.1%; in the data set with 3T3-L1 [8] it was 40.1%. In addition, the inhibition result with 3T3-L1 [5] was “Active”.
